Source: patent US8546451B2 (priority 2005, dated 2013)
Where “and” joins values, the source holds several entries; their conditions need not be identical. Identical values can stand only once.

Assays:
[1] = test system: intact and ORX rats; experiment: Prostate size, Compound IV versus DES in rats; format: in vivo
[2] = Mutagenicity
[3] = test system: CYP3A4; experiment: CYP450 induction in vitro, CYP3A4; format: in vitro ADME
[4] = target: androgen receptor (AR) (Rattus norvegicus (Rat), UniProt P15207); experiment: Cross-reactivity transcriptional activation assay, AR; format: cell-based; details: agonist and antagonist modes
Excerpt: (§1) Compound IV was screened for cross-reactivity against rat isoforms of glucocorticoid receptor (GR), mineralocorticoids receptor (MR), progesterone receptor (PR), androgen receptor (AR) and human isoforms of farnesoid X receptor (FXR), liver X receptor (LXR), peroxisome proliferator-activated receptors (PPAR-α and PPAR-γ), and retinoid X receptor (RXR-α) in both agonist and antagonist modes in transcriptional activation assays.

[5] = target: CYP2C9 (Homo sapiens (Human), UniProt P11712); experiment: CYP450 inhibition in vitro, CYP2C9; format: in vitro ADME
[6] = test system: human platelets; experiment: In vitro human platelet aggregation assay (thrombin-induced); details: platelet rich plasma preincubated 30 seconds; thrombin 0.3 units
[7] = test system: serum testosterone and total androgens; experiment: Testosterone suppression in Cynomolgus monkeys; format: in vivo; details: 30 mg/kg oral daily
[8] = test system: CYP2B6; experiment: CYP450 induction in vitro, CYP2B6; format: in vitro ADME
[9] = test system: LH, FSH, testosterone and androgen-dependent organ weights; experiment: Suppression of LH and testosterone hormone levels in intact and ORX rats; format: in vivo, Sprague-Dawley rats; details: for Testosterone levels: LLOQ 0.08 ng/mL
[10] = test system: human peripheral blood lymphocytes; experiment: Chromosomal aberrations in human peripheral blood lymphocytes in vitro; format: cell-based; details: concentrations up to 200 μM
[11] = Neuropharmacological and pulmonary safety pharmacology; details: in vivo
[12] = target: rat ER-β (Rattus norvegicus (Rat), UniProt Q62986); experiment: ER-β transactivation assay (ERE-LUC) in HEK-293 cells; format: cell-based
Experimental: Transactivation assays in agonist and antagonist modes were performed to identify whether the compound is an agonist, antagonist or a partial.
Sequencing was performed to determine the absence of any mutations. HEK-293 cells were plated at 100,000 cells per well of a 24 well plate in Dulbecco's Minimal Essential Media (DMEM) +5% charcoal-stripped fetal bovine serum (csFBS). […] Luciferase assays were performed 48 hrs after transfection.

[13] = target: Human 17β-HSD5 (Homo sapiens (Human), UniProt P42330); experiment: 17β-HSD5 enzyme activity assay; format: biochemical; details: 14C androstenedione to testosterone, TLC (FIG. 3)
[14] = test system: estrogen related receptor (ERR-α, ERR-β and ERR-γ); experiment: DES versus Compound IV, ERR transactivation (FIG. 12C); format: cell-based
[15] = test system: liver X receptor (LXR); experiment: Cross-reactivity transcriptional activation assay, LXR; format: cell-based, human; details: agonist and antagonist modes
Excerpt: as §1

[16] = Intact, 0.3 mg/kg per day s.c., 14 days
[17] = Intact, 1 mg/kg per day s.c., 14 days
[18] = Intact, 3 mg/kg per day s.c., 14 days
[19] = Intact, 10 mg/kg per day s.c., 14 days
[20] = Intact, 30 mg/kg per day s.c., 14 days
[21] = ORX, 0.3 mg/kg per day s.c., 14 days
[22] = ORX, 1 mg/kg per day s.c., 14 days
[23] = ORX, 3 mg/kg per day s.c., 14 days
[24] = ORX, 10 mg/kg per day s.c., 14 days
[25] = ORX, 30 mg/kg per day s.c., 14 days

Chain of rat ER-β (Q62986 whole entry): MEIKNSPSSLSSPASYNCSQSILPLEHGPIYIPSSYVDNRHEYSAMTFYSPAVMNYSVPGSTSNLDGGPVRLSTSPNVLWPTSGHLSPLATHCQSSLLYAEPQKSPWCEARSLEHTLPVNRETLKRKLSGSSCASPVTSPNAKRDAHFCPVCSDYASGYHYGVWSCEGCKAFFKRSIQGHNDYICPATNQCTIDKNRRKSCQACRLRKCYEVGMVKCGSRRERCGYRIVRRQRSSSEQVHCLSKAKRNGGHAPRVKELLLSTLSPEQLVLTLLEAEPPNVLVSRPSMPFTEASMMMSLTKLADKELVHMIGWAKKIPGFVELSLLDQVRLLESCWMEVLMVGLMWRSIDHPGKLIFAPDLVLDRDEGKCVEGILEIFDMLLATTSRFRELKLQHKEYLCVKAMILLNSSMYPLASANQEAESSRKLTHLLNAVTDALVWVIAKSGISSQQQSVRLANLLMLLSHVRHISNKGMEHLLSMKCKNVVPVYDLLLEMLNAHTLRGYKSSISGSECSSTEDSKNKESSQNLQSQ
Chain of androgen receptor (AR) (P15207 whole entry S389L, canonical isoform): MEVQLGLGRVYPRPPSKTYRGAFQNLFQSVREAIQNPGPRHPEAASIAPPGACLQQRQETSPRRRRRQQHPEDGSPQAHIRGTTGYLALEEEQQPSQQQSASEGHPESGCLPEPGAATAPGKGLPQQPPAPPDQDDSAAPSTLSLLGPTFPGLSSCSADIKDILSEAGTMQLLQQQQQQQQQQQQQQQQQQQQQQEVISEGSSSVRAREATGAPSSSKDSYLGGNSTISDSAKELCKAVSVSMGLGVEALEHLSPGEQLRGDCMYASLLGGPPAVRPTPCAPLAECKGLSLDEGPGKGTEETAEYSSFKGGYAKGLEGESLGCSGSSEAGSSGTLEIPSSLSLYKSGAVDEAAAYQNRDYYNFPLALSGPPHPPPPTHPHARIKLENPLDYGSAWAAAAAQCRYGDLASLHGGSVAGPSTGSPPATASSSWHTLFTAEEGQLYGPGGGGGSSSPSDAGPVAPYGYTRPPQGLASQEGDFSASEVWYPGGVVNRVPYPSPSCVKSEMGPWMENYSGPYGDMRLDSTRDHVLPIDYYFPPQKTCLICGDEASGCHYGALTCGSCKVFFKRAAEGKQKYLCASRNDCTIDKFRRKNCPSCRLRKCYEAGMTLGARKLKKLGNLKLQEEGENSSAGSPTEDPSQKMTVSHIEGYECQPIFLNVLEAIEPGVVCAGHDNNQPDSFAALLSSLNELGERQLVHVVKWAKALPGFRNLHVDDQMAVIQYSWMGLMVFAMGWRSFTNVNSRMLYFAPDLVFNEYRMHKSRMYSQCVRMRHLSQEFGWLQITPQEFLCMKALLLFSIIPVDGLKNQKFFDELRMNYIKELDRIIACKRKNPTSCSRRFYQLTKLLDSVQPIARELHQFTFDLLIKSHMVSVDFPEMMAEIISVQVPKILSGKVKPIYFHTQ
Chain of Human 17β-HSD5 (P42330 whole entry): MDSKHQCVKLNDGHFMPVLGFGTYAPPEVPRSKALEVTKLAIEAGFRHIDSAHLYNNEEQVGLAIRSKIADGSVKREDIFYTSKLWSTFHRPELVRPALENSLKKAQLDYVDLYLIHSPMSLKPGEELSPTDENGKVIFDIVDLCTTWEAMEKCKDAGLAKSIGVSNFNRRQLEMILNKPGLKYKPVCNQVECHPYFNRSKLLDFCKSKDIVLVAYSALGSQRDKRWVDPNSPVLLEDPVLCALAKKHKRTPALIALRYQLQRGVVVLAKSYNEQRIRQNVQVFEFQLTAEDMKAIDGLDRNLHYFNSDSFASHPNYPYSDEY
Chain of CYP2C9 (P11712 whole entry): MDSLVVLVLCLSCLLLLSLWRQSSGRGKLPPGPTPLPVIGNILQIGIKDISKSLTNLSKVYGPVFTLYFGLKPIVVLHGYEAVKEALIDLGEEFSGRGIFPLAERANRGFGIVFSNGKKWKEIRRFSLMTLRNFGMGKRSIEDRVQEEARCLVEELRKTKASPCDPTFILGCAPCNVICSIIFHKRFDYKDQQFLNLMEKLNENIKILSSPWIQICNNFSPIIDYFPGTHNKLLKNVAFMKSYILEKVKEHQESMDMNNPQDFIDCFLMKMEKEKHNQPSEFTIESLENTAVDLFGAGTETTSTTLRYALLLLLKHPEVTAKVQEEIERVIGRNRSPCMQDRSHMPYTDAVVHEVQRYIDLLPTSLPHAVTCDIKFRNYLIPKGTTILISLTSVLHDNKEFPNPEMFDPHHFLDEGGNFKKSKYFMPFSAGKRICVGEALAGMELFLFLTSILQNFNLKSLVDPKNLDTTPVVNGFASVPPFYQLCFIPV

Structure (SMILES): O=C(c1ccc(O)c(F)c1)N(c1ccc(O)cc1)c1ccc(F)cc1 [Compound IV, 3-fluoro-N-(4-fluorophenyl)-4-hydroxy-N-(4-hydroxyphenyl)benzamide]
- prostate size of ORX rats ([1]; ORX rats (FIG. 11B)): moderate increase
- reduction of prostate size ([1]; rats (FIG. 11A), compared with DES): as effective as DES
- mutagenicity [2]: not mutagenic
- induction of CYP3A4 [3]: does not induce
- agonist or antagonist activity [4]: did not display any agonist or antagonist activity
- Ki [5]: 8 µM
- effect on thrombin-induced platelet aggregation [6]: decreased aggregation
- Testosterone Percent reduction from baseline ([7]; Animal 1, Day 2): 16%
- Testosterone Serum level ([7]; Animal 1, Day 2): 937 pg/mL
- Total Androgens Percent reduction from baseline ([7]; Animal 1, Day 2): 37%
- Total Androgens Serum level ([7]; Animal 1, Day 2): 1178 pg/mL
- Testosterone Percent reduction from baseline ([7]; Animal 1, Day 3): 30%
- Testosterone Serum level ([7]; Animal 1, Day 3): 784 pg/mL
- Total Androgens Percent reduction from baseline ([7]; Animal 1, Day 3): 42%
- Total Androgens Serum level ([7]; Animal 1, Day 3): 1078 pg/mL
- Testosterone Percent reduction from baseline ([7]; Animal 1, Day 4): 51%
- Testosterone Serum level ([7]; Animal 1, Day 4): 552 pg/mL
- Total Androgens Percent reduction from baseline ([7]; Animal 1, Day 4): 47%
- Total Androgens Serum level ([7]; Animal 1, Day 4): 988 pg/mL
- Testosterone Percent reduction from baseline ([7]; Animal 1, Day 5): 64%
- Testosterone Serum level ([7]; Animal 1, Day 5): 403 pg/mL
- Total Androgens Percent reduction from baseline ([7]; Animal 1, Day 5): 48%
- Total Androgens Serum level ([7]; Animal 1, Day 5): 966 pg/mL
- Testosterone Percent reduction from baseline ([7]; Animal 1, Day 6): 58%
- Testosterone Serum level ([7]; Animal 1, Day 6): 474 pg/mL
- Total Androgens Percent reduction from baseline ([7]; Animal 1, Day 6): 56%
- Total Androgens Serum level ([7]; Animal 1, Day 6): 819 pg/mL
- Testosterone Percent reduction from baseline ([7]; Animal 3, Day 2): 22%
- Testosterone Serum level ([7]; Animal 3, Day 2): 479 pg/mL
- Total Androgens Percent reduction from baseline ([7]; Animal 3, Day 2): 48%
- Total Androgens Serum level ([7]; Animal 3, Day 2): 847 pg/mL
- Testosterone Percent reduction from baseline ([7]; Animal 3, Day 3): 29%
- Testosterone Serum level ([7]; Animal 3, Day 3): 437 pg/mL
- Total Androgens Percent reduction from baseline ([7]; Animal 3, Day 3): 52%
- Total Androgens Serum level ([7]; Animal 3, Day 3): 786 pg/mL
- Testosterone Percent reduction from baseline ([7]; Animal 3, Day 4): 33%
- Testosterone Serum level ([7]; Animal 3, Day 4): 415 pg/mL
- Total Androgens Percent reduction from baseline ([7]; Animal 3, Day 4): 44%
- Total Androgens Serum level ([7]; Animal 3, Day 4): 924 pg/mL
- Testosterone Percent reduction from baseline ([7]; Animal 3, Day 5): 55%
- Testosterone Serum level ([7]; Animal 3, Day 5): 276 pg/mL
- Total Androgens Percent reduction from baseline ([7]; Animal 3, Day 5): 60%
- Total Androgens Serum level ([7]; Animal 3, Day 5): 664 pg/mL
- Testosterone Percent reduction from baseline ([7]; Animal 3, Day 6): 64%
- Testosterone Serum level ([7]; Animal 3, Day 6): 221 pg/mL
- Total Androgens Percent reduction from baseline ([7]; Animal 3, Day 6): 56%
- Total Androgens Serum level ([7]; Animal 3, Day 6): 726 pg/mL
- induction of CYP2B6 [8]: does not induce
- FSH [9, 16]: 17.3±6.4 ng/mL and 17.3^b ng/mL
- LH [9, 16]: 0.863±0.384 ng/mL and 0.863^b ng/mL
- Levator Ani Muscle weight [9, 16]: 86.9±10.0 % of Intact and 86.9^a,b % of Intact
- Prostate weight [9, 16]: 84.0±19.2 % of Intact and 84.0^b % of Intact
- Seminal Vesicles weight [9, 16]: 76.2±7.8 % of Intact and 76.2^a,b % of Intact
- Testosterone levels [9, 16]: 2.6 ± 1.7 ng/mL
- FSH [9, 17]: 15.7±7.3 ng/mL and 15.7^b ng/mL
- LH [9, 17]: 0.704±0.530 ng/mL and 0.704^b ng/mL
- Levator Ani Muscle weight [9, 17]: 82.1±12.1 % of Intact and 82.1^a,b % of Intact
- Prostate weight [9, 17]: 75.2±20.7 % of Intact and 75.2^b % of Intact
- Seminal Vesicles weight [9, 17]: 66.3±27.2 % of Intact and 66.3^a,b % of Intact
- Testosterone levels [9, 17]: 1.6 ± 1.0 ng/mL
- FSH [9, 18]: 18.4±7.7 ng/mL and 18.4^b ng/mL
- LH [9, 18]: 0.395±0.302 ng/mL and 0.395^a,b ng/mL
- Levator Ani Muscle weight [9, 18]: 65.2±4.4 % of Intact and 65.2^a % of Intact
- Prostate weight [9, 18]: 68.2±8.1 % of Intact and 68.2^a,b % of Intact
- Seminal Vesicles weight [9, 18]: 51.8±28.5 % of Intact and 51.8^a,b % of Intact
- Testosterone levels [9, 18]: 0.7 ± 0.4 ng/mL
- FSH [9, 19]: 9.2±4.0 ng/mL and 9.25^a,b ng/mL
- LH [9, 19]: 0.226±0.165 ng/mL and 0.226^a,b ng/mL
- Levator Ani Muscle weight [9, 19]: 57.8±11.2 % of Intact and 57.8^a % of Intact
- Prostate weight [9, 19]: 45.1±20.0 % of Intact and 45.1^a,b % of Intact
- Seminal Vesicles weight [9, 19]: 19.1±7.0 % of Intact and 19.1^a % of Intact
- Testosterone levels [9, 19]: BLOQ
- FSH [9, 20]: 6.3±1.8 ng/mL and 6.25^a,b ng/mL
- LH [9, 20]: 0.236±0.176 ng/mL and 0.236^a,b ng/mL
- Levator Ani Muscle weight [9, 20]: 58.1±4.7 % of Intact and 58.1^a % of Intact
- Prostate weight [9, 20]: 43.6±8.8 % of Intact and 43.6^a,b % of Intact
- Seminal Vesicles weight [9, 20]: 17.9±3.3 % of Intact and 17.9^a % of Intact
- Testosterone levels [9, 20]: BLOQ
- FSH [9, 21]: 115±17 ng/mL and 116^a ng/mL
- LH [9, 21]: 15.4±2.9 ng/mL and 15.4^a ng/mL
- Levator Ani Muscle weight [9, 21]: 54.5±6.6 % of Intact and 54.5^a % of Intact
- Prostate weight [9, 21]: 19.0±4.2 % of Intact and 19.0^a,b % of Intact
- Seminal Vesicles weight [9, 21]: 12.2±1.3 % of Intact and 12.2^a % of Intact
- FSH [9, 22]: 114±22 ng/mL and 114^a ng/mL
- LH [9, 22]: 13.5±2.2 ng/mL and 13.5^a ng/mL
- Levator Ani Muscle weight [9, 22]: 49.6±7.0 % of Intact and 49.6^a % of Intact
- Prostate weight [9, 22]: 17.4±3.4 % of Intact and 17.4^a % of Intact
- Seminal Vesicles weight [9, 22]: 16.6±5.4 % of Intact and 16.6^a % of Intact
- FSH [9, 23]: 65.2±31.9 ng/mL and 65.2^a ng/mL
- LH [9, 23]: 6.5 ± 5.6 ng/mL and 6.5 ng/mL
- Levator Ani Muscle weight [9, 23]: 53.6±10.0 % of Intact and 53.6^a % of Intact
- Prostate weight [9, 23]: 19.6±6.7 % of Intact and 19.6^a % of Intact
- Seminal Vesicles weight [9, 23]: 16.5±4.8 % of Intact and 16.5^a % of Intact
- FSH [9, 24]: 27.6±8.2 ng/mL and 27.6^b ng/mL
- LH [9, 24]: 0.425±0.135 ng/mL and 0.425^a,b ng/mL
- Levator Ani Muscle weight [9, 24]: 51.1±4.9 % of Intact and 51.1^a % of Intact
- Prostate weight [9, 24]: 22.9±5.4 % of Intact and 22.9^a,b % of Intact
- Seminal Vesicles weight [9, 24]: 13.3±1.9 % of Intact and 13.3^a % of Intact
- FSH [9, 25]: 15.1±4.1 ng/mL and 15.1^b ng/mL
- LH [9, 25]: 0.368±0.119 ng/mL and 0.368^a,b ng/mL
- Levator Ani Muscle weight [9, 25]: 49.2±4.2 % of Intact and 49.2^a,b % of Intact
- Prostate weight [9, 25]: 20.6±2.1 % of Intact and 20.6^a,b % of Intact
- Seminal Vesicles weight [9, 25]: 12.9±2.1 % of Intact and 12.9^a % of Intact
- Testosterone levels ([9]; ORX, all treated groups (0.3-30 mg/kg per day)): BLOQ
- doses that significantly suppressed LH levels ([9]; intact and ORX animals, vs respective controls): ≥ 10 mg/kg per day
- daily doses with statistically significant LH reductions ([9]; intact animals): ≥ 3 mg/kg
- doses with significant FSH reductions ([9]; intact animals): ≥ 10 mg/kg/day
- doses with significant testosterone reductions ([9]; intact animals): ≥ 3 mg/kg per day
- suppression of serum testosterone ([9]; intact male rats, 3, 10 and 300 mg/kg, after 24 h, 72 h and 168 h (FIG. 9)): Rapid and potent suppression
- structural or numeric chromosomal aberrations [10]: did not induce structural or numeric chromosomal aberrations
- neuropharmacological or pulmonary effects [11]: No neuropharmacological or pulmonary effects were observed
- ERβ activity in transient transfection assays [12]: agonist
- antagonist effects on estradiol-stimulated transcriptional activation ([12]; estradiol 1 nM, concentrations up to 10 μM): no antagonist effects were observed
- effect on 17β-HSD5 enzyme activity [13]: partial inhibitory effect
- effect on ERR transactivation [14]: failed to crossreact
- agonist or antagonist activity [15]: did not display any agonist or antagonist activity
